What all share (assay): DTP human tumour cell line panel, 48 h
In assay [1] the test system is NCI-H522.
The subject of assay [2] is NCI-H23.
In assay [3] the test system is MDA-MB-435.
Assay [4] deals with LOX IMVI.
The subject of assay [5] is HT-29.
Assay [6] concerns MDA-N.
Assay [7] relates to M14.
Assay [8] deals with NCI-H226.
The test system of assay [9] is HCT-116.
The subject of assay [10] is PC-3.
Assay [11] concerns TK-10.
In assay [12] the test system is SK-MEL-2.
Assay [13] concerns A498.
Assay [14] deals with COLO 205.
Assay [15] relates to SF-295.
The subject of assay [16] is SF-539.
Assay [17] has as its system SR.
The test system of assay [18] is RPMI-8226.
For assay [19], the system named is HOP-92.
The test system of assay [20] is CAKI-1.

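How tested: cells in 96-well plates exposed to compound for 48 hours at five concentrations. Here, GI50 denotes the concentration required for 50% inhibition of growth.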 Active and inactive are the calls of the source. No stated cut-off is given here; in the data, active = GI50 up to about 1.1 µM and inactive = higher.

A word on the GI50: it is the concentration that inhibits growth by half.

For `CC1=C(\C=C/C(C)=C/C=C/C(C)=C/C=C/C=C(C)\C=C\C=C(C)/C=C/C2=C(C)CCCC2(C)C)C(C)(C)CCC1`, the GI50 was 35.4 µM (inactive) in assay [1]; 34.2 µM (inactive) in [2]; 68.9 µM (inactive) in [3]; > 100 µM (inactive) in assay [4]; 56.4 µM (inactive) in assay [5]; 40 µM (inactive) in assay [6]. The GI50 in assay [7] was > 100 µM (inactive); in assay [8] it was > 100 µM (inactive); in assay [9], 22.1 µM (inactive); in assay [10], > 100 µM (inactive); in [11], > 100 µM (inactive); in [12], > 100 µM (inactive). In addition, the GI50 was > 100 µM (inactive) in assay [13], 52.6 µM (inactive) in [14] and > 100 µM (inactive) in assay [15].

Take `CC(C)(C)n1c(=O)n(C(=O)C(Cl)(Cl)Cl)n(C(=O)C(Cl)(Cl)Cl)c1=O`: the GI50 in [1], in assay [2], in [16], in assay [3], in assay [4] and in [5] was > 100 µM (inactive) each time. Moreover, the GI50 in assay [6], in [7], in [8], in [9], in assay [17] and in [10] was > 100 µM (inactive) in each case. In addition, the GI50 in assay [11], in assay [12], in assay [18], in assay [19], in [14] and in assay [20] was > 100 µM (inactive) throughout. Further, the GI50 in assay [15] was > 100 µM (inactive).

In the case of `O=S(=O)(NC1CCCCC1)c1ccc2c(c1)OCCOCCOCCOCCO2`, the GI50 in assay [1], in assay [2], in assay [16], in [3], in [4] and in assay [5] was > 100 µM (inactive) each time. For the same compound, the GI50 in [6], in assay [7], in assay [8], in assay [9], in assay [17] and in [10] was > 100 µM (inactive) in each case. The GI50 in [11], in assay [18], in [13], in [14], in assay [20] and in assay [15] was > 100 µM (inactive) throughout.

Consider `CCP(=O)(OC)C1=CCN(C(=O)OCC[Si](C)(C)C)CC1` (stereo not given), for which the GI50 was > 100 µM (inactive) in [1]; > 100 µM (inactive) in assay [2]; 72.9 µM (inactive) in assay [16]; > 100 µM (inactive) in assay [3]; > 100 µM (inactive) in [4]; > 100 µM (inactive) in assay [5]. The GI50 in assay [6], in assay [7], in assay [8], in assay [10], in [11] and in assay [12] was > 100 µM (inactive) throughout. Besides, the GI50 in [18], in [19], in assay [13], in assay [14], in assay [20] and in assay [15] was > 100 µM (inactive) throughout.

For the compound `COc1ccc(-c2cc(-c3cc(F)c(Cl)cc3Cl)on2)cc1OC`, the GI50 was 15.6 µM (inactive) in assay [1]; 29.9 µM (inactive) in assay [2]; 4.61 µM (inactive) in assay [16]; 1.8 µM (inactive) in assay [3]; 31.2 µM (inactive) in [4]; 22.5 µM (inactive) in [5]. Besides, the GI50 was 2.44 µM (inactive) in assay [6]; 24.9 µM (inactive) in assay [7]; 13.3 µM (inactive) in assay [8]; 29.2 µM (inactive) in assay [9]; 1.16 µM (inactive) in [17]; 18.7 µM (inactive) in assay [10]. Also, the GI50 was 49.5 µM (inactive) in assay [11]; 17.1 µM (inactive) in assay [12]; 34.7 µM (inactive) in assay [18]; 30.1 µM (inactive) in assay [19]; 17.4 µM (inactive) in assay [14]; 45 µM (inactive) in assay [20]. Besides, the GI50 in assay [15] was 13.2 µM (inactive).

In the case of `C/C=C/CC(C(=O)OCC)(N(C)C(=O)OC(C)(C)C)S(=O)(=O)c1ccc(C)cc1` (stereo not given), the GI50 in [1] is 57.7 µM (inactive); in assay [2] it was > 100 µM (inactive); in assay [16], > 100 µM (inactive); in [3] it was 25.7 µM (inactive); in assay [4] it was > 100 µM (inactive); in assay [5], 39.4 µM (inactive). The GI50 was 22.1 µM (inactive) in assay [6]; 50.6 µM (inactive) in assay [7]; > 100 µM (inactive) in assay [8]; 70.6 µM (inactive) in assay [9]; 71.8 µM (inactive) in assay [10]; > 100 µM (inactive) in [11]. Besides, the GI50 in assay [12] was 51.6 µM (inactive); in [18] it was 52.8 µM (inactive); in [19], > 100 µM (inactive); in [13], > 100 µM (inactive); in assay [14], 68.1 µM (inactive); in assay [20], > 100 µM (inactive). Besides, in assay [15], the GI50 was 63.7 µM (inactive).

`CN(C)CCNC(=O)c1cccc2c(NC(CCCNC(=N)N)C(=O)O)c3ccccc3[n+](C)c12` (stereo not given): the GI50 was > 100 µM (inactive) in [2]; 83.8 µM (inactive) in assay [16]; > 100 µM (inactive) in [3]; 66.1 µM (inactive) in assay [4]; > 100 µM (inactive) in [5]; 61.5 µM (inactive) in [6]. The GI50 in assay [7] was > 100 µM (inactive); in [8], 39.5 µM (inactive); in assay [9], 45.6 µM (inactive); in [17], > 100 µM (inactive); in assay [10], 79.8 µM (inactive); in [11], > 100 µM (inactive). In addition, the GI50 is > 100 µM (inactive) in assay [12]; > 100 µM (inactive) in assay [18]; > 100 µM (inactive) in assay [13]; 38.9 µM (inactive) in [14]; > 100 µM (inactive) in assay [15].

Regarding `CN(C)CCOc1ccc(I)cc1Cc1ccccc1`, the GI50 in assay [1] is 11.9 µM (inactive); in assay [2], 4.05 µM (inactive); in [16] it was 13.8 µM (inactive); in [3], 4.27 µM (inactive); in assay [4] it was 5.2 µM (inactive); in assay [5] it was 4.36 µM (inactive). Besides, the GI50 in assay [6] was 5.31 µM (inactive); in [7], 2.66 µM (inactive); in assay [8] it was 15.9 µM (inactive); in assay [9] it was 10.6 µM (inactive); in assay [17], 2.65 µM (inactive); in assay [10], 8.28 µM (inactive). Further, the GI50 was 12.7 µM (inactive) in assay [11]; 15 µM (inactive) in [12]; 6.34 µM (inactive) in [18]; 13.9 µM (inactive) in [13]; 11.9 µM (inactive) in assay [14]; 15.4 µM (inactive) in assay [15].

For the compound `CCC1(O)CC(OC2CC(N(C)C)C(OC3CC(O)C(OC4OC(C)C(=O)C=C4N)C(C)O3)C(C)O2)c2c(cc3c(c2O)C(=O)c2c(O)cccc2C3=O)C1C(=O)OC` (stereo not given), the GI50 in assay [1] is 0.0355 µM (active); in assay [2], 0.104 µM (active); in assay [16], 0.0501 µM (active); in assay [3] it was 0.00583 µM (active); in [4], 0.046 µM (active); in [5], 0.00889 µM (active). The GI50 in [6] was 0.00682 µM (active); in assay [7], 0.0345 µM (active); in assay [8] it was 0.115 µM (active); in [9], < 0.001 µM (active); in assay [17], 0.00625 µM (active); in assay [10], 0.00566 µM (active). The GI50 in [11] was 0.06 µM (active); in assay [12], 0.0221 µM (active); in assay [18] it was 0.00153 µM (active); in [19], 0.0746 µM (active); in [14], 0.00429 µM (active); in assay [20], 0.00604 µM (active). Further, the GI50 in [15] was 0.0016 µM (active).

For `COc1cc2c(cc1OC)-c1[nH]c3ccc([N+](=O)[O-])cc3c1CC(=O)N2`, the GI50 in [2] was 4.33 µM (inactive); in [16], 0.316 µM (active); in assay [3], 1.71 µM (inactive); in assay [4] it was 1.55 µM (inactive); in assay [5] it was 3.83 µM (inactive); in assay [6], 4.48 µM (inactive). In addition, the GI50 in assay [7] is 5.38 µM (inactive); in assay [8], 0.78 µM (active); in [9], 0.472 µM (active); in assay [17], 0.278 µM (active); in [10] it was 3.29 µM (inactive); in [11], 2.37 µM (inactive). Moreover, the GI50 in [12] is 3.7 µM (inactive); in [18] it was 3.6 µM (inactive); in assay [13], 2.98 µM (inactive); in [14], 0.325 µM (active); in [20], 2.89 µM (inactive); in assay [15], 3.53 µM (inactive).

The values are drawn from ChEMBL document CHEMBL1201862, “PubChem BioAssay data set” (2004).
